The values below come from patent US20250314668A1, “DNAZYMES FOR SENSING AND IMAGING TARGET MOLECULES” (BOARD OF REGENTS, THE UNIVERSITY OF TEXAS SYSTEM, priority 2024, published 2025).

Entries after “also recorded” stand apart in the source; their conditions may differ. d = 2'-deoxy (DNA); m = 2'-O-methyl; r = 2'-OH (RNA)

Data set [1] is described as follows: PAGE gel activity assays of Fe^2+ H5 DNAzyme (cleavage site, truncation, pH, mutation combinations, selectivity). The data set is classed as biochemical. The following applies: for cleavage by the original Fe^2+ H5 DNAzyme: presence of Fe^2+, anaerobic conditions; for relative activity of combined point mutations versus original: original FAM-labeled substrate, 100 μM FeCl2, 2 hours, room temperature. The text has this: RNA Cleavage Dependence of Fe^2+ H5 and Fe^3+ B12 DNAzymes: To investigate the Fe^2+ H5 and Fe^3+ B12 DNAzymes, various cleavage site modifications were incorporated into the substrate strands. The original Fe^2+ H5 DNAzyme was combined with Fe^2+ H5 substrate strands containing either a 2′-hydroxyl (2′OH), 2′-hydrogen (2′H), or 2′O-methyl (2′OMe) at the cleavage site. The original Fe^2+ H5 DNAzyme cleaves the Fe^2+ H5 substrate strand containing 2′OH at the cleavage site in the presence of Fe^2+ under anaerobic conditions. […] Similarly, the original Fe^3+ B12 DNAzyme was combined with Fe^3+ B12 substrate strands containing either 2′OH, 2′H, or 2′OMe at the cleavage site. The original Fe^3+ B12 DNAzyme cleaves the Fe^3+ B12 substrate strand containing 2′OH at the cleavage site in the presence of Fe^3+. […] These findings highlight the critical role of the 2′OH group at the cleavage site in enabling DNAzyme activity for both Fe^2+ H5 and Fe^3+ B12 systems, as substitutions with 2′H or 2′OMe impede cleavage.
Truncations of Fe^2+ H5 and Fe^3+ B12 DNAzymes' Binding Arms: To further investigate the Fe^2+ H5 and Fe^3+ B12 DNAzymes, the DNAzymes were truncated at the 5′ and 3′ ends and tested using the FAM-labeled original substrate strand through activity assays assessed by PAGE gel. The activity of the Fe^2+ H5 DNAzyme with the original substrate strand remains relatively unchanged when 1 or 2 nucleotides are truncated from either the 3′ or 5′ end. […] The activity of the Fe^3+ B12 DNAzyme with the original substrate strand is maintained when 1 or 2 nucleotides are truncated from the […]. A notable reduction in relative intensity occurs when 3, 4, or 5 nucleotides are truncated from the 5′ end. Additionally, truncation of 1, 2, or 3 nucleotides from the 3′ end also results in a decrease in relative intensity.
pH Dependency of Fe^2+ H5 and Fe^3+ B12 DNAzymes: To further investigate the impact of reaction conditions on catalytic activity, the study evaluated the influence of pH system. For the Fe^2+ H5 DNAzyme, the study assessed cleavage efficiency across a pH range of 6.0 to 7.5 in MOPS, MES, Bis-Tris, or Tris under anaerobic conditions with 100 μM FeCl2.
Combination of Fe^2+ H5 DNAzyme strand Improvements: Given the enhanced activity observed with several point mutations in the Fe^2+ H5 DNAzyme strand, the study investigated whether combinations of these point mutations would further improve the DNAzyme's activity. The study designed 41 combinations of the 6-point mutations located at positions 39 (A39T and A39G), 40 (A40C), 51 (G51C), 52 (C52G), and 54 (T54C), along with the original Fe^2+ H5. Each sequence was tested with the original FAM-labeled Fe^2+ substrate strand in the presence of 100 μM FeCl2 for 2 hours at room temperature. […] Certain combinations of mutations enhance activity, while others diminish it, indicating interactions that are not merely additive. The specific positions of the mutations play a critical role in determining the overall activity, with some combinations inducing beneficial conformational changes and others disrupting key structural elements. These findings highlight the importance of understanding the contextual interplay of mutations for optimizing DNAzyme performance. The identified combinations that increase activity offer valuable insights for the future engineering of more efficient DNAzyme variants.
Combining Enhanced Fe^2+ H5 and Fe^3+ B12 DNAzymes Single Point Mutations: To assess the potential additive effects of combining enhanced Fe^2+ H5 DNAzyme strands with substrate strands, the study evaluated the relative intensities of point mutations within these strands. Reactions were conducted in a buffer solution containing 25 mM Bis-Tris, 200 mM NaCl at pH 6.5, with 250 nM each of the mutated H5 DNAzyme strand and the FAM-labeled mutated H5 substrate strand, and 100 μM FeCl2. […]

For the next data set, the system named is HT1080 cells. The data set is described as follows: Fe^2+ and Fe^3+ imaging in cells treated with SAS and Fer-1, with or without NCOA4 knock down. Type of data set: cell-based. The method, then: Ferroptosis is a Fe-related cell death. To understand how Fe^2+ and Fe^3+ have a role in this process, the cells were incubated with Sulfasalazine (SAS), which inhibits System Xc- and induces ferroptosis. Elevated Fe^2+ and Fe^3+ levels, as well as an elevated Fe^3+/Fe^2+ ratio over time, were observed when compared with nontreated controls. This elevation is inhibited by Ferrostatin-1 (Fer-1), an antioxidant that inhibits lipid peroxidation by scavenging alkoxyl radicals. […] This observation indicates the association between Fe levels and lipid peroxidation.
To understand how labile iron and iron redox changes are associated with cell ferroptosis, the study focused on the regulatory effects of NCOA4 on Fe^2+ and Fe^3+. NCOA4 is a key gene that regulates iron homeostasis through ferritinophagy, degrading iron storage protein, and releasing iron into the cell. To understand how NCOA4 influences Fe^2+ and Fe^3+, the study used the CRISPR/Cas technique to knock down NCOA4 expressions. As shown with the western blot, single guide RNAs knocked down the expression of NCOA4 in the HT1080 cells. In these cells, reduced Fe^2+ and Fe^3+ signals were detected as indicated by the DNAzyme sensors. In the meanwhile, the redox ratio of Fe^3+/Fe^2+ elevated, indicating the NCOA4 may not only regulate the labile iron amount but also the Fe redox states.
On the contrary, when inhibiting ferroptosis with Fer-1, reduced Fe^2+ and Fe^3+ levels were observed.

The nature of data set [2]: Point mutation gel cleavage assay of Fe^2+ H5 DNAzyme and substrate (heat map). The following applies: 100 μM FeCl2, pH 6.5, anaerobic, overnight; for activity of mutated substrate strand normalized to original Fe^2+ H5 Substrate: original DNAzyme strand; for activity of mutated DNAzyme strand normalized to original Fe^2+ H5 DNAzyme: FAM-labeled original substrate. Type of data set: biochemical. The method, then:
FIG. 7 depicts a heat map illustrating the impact of point mutations within the catalytic core of the Fe^2+ H5 DNAzyme, against the unaltered Fe^2+ H5 substrate strand for comparative analysis with 25 mM Bis Tris, 200 mM NaCl at pH 6.5 with 100 μM FeCl2 in anaerobic conditions. The reaction occurred overnight at room temperature and analyzed by polyacrylamide gel electrophoresis.
FIG. 8 depicts a heat map illustrating the impact of point mutations within the catalytic core of the Fe^2+ H5 Substrate strand, against the unaltered Fe^2+ H5 DNAzyme strand for comparative analysis with 25 mM Bis Tris, 200 mM NaCl at pH 6.5 with 100 μM FeCl2 in anaerobic conditions. The reaction occurred overnight at room temperature and analyzed by polyacrylamide gel electrophoresis.
Point mutations were intentionally introduced into the Fe^2+ H5 DNAzyme, and subsequently assessed in comparison to the unaltered Fe^2+ H5 Substrate under controlled reaction conditions. These conditions include a solution containing 25 mM Bis Tris, 200 mM NaCl at pH 6.5, with concentrations set at 250 nM for both the mutated H5 DNAzyme Strand and the FAM-labeled Original H5 Substrate Strand, alongside 100 μM FeCl2. The reaction proceeded overnight at room temperature under anaerobic conditions, followed by analysis via electrophoresis on a 15% denaturing gel.
Point mutations were intentionally introduced into the Fe^2+ H5 Substrate Strand, and subsequently assessed in comparison to the unaltered Fe^2+ H5 DNAzyme under controlled reaction conditions. These conditions include a solution containing 25 mM Bis Tris, 200 mM NaCl at pH 6.5, with concentrations set at 250 nM for both the Original H5 DNAzyme Strand and the FAM-labeled mutated H5 Substrate Strand, alongside 100 μM FeCl2. The reaction proceeded overnight at room temperature under anaerobic conditions, followed by analysis via electrophoresis on a 15% denaturing gel.

Regarding “Fe^2+ H5 Original Substrate (2′OMe) (CGGACCCGTATCAATCTCACGTATAGGATATCCA; sugars from the 5' end d24 m1 d9, backbone not given here)”, the “cleavage by the original Fe^2+ H5 DNAzyme” value in data set [1] is reported as “does not cleave”.
On to “Fe^2+ H5 Original Substrate (2′H) (CGGACCCGTATCAATCTCACGTATAGGATATCCA; DNA, backbone not given here)”, for which the “cleavage by the original Fe^2+ H5 DNAzyme” value in data set [1] is recorded as “does not cleave”.
As for `O=C(O)c1cc(/N=N/c2ccc(S(=O)(=O)Nc3ccccn3)cc2)ccc1O` [SAS, Sulfasalazine], the “Fe^2+ and Fe^3+ levels in control guide RNA cells” value with HT1080 cells is on record as “elevated”. In the data set with HT1080 cells (over time), the “Fe^2+ and Fe^3+ levels compared with nontreated controls” value was “Elevated”; the “Fe^3+/Fe^2+ ratio compared with nontreated controls” value is reported as “elevated”. Moreover, the “increase in Fe^2+ and Fe^3+ levels in NCOA4 downregulated cells” value with HT1080 cells (similar treatments as control cells) was “smaller increase”.
Regarding “Fe^2+ H5 Substrate T11C (CGGACCCGTACCAATCTCACGTATAGGATATCCA; DNAzyme; sugars from the 5' end d24 r1 d9, backbone not given here; FAM-labeled in assays, further chemistry not fully specified)”, in data set [2], the “activity of mutated substrate strand normalized to original Fe^2+ H5 Substrate” value is reported as “heightened activity”.
With “Fe^2+ H5 Substrate A13C (CGGACCCGTATCCATCTCACGTATAGGATATCCA; DNAzyme; sugars from the 5' end d24 r1 d9, backbone not given here; FAM-labeled in assays, further chemistry not fully specified)”, the “activity of mutated substrate strand normalized to original Fe^2+ H5 Substrate” value in data set [2] is recorded as “heightened activity”.
Regarding “Fe^2+ H5 Substrate A14T (CGGACCCGTATCATTCTCACGTATAGGATATCCA; DNAzyme; sugars from the 5' end d24 r1 d9, backbone not given here; FAM-labeled in assays, further chemistry not fully specified)”, the “activity of mutated substrate strand normalized to original Fe^2+ H5 Substrate” value in data set [2] was “heightened activity”.
`CCOC(=O)c1ccc(NC2CCCCC2)c(N)c1` [Fer-1, Ferrostatin-1]: in the data set with HT1080 cells (Fer-1 added to SAS-treated cells), the “effect of Fer-1 on the SAS-induced elevation of Fe levels” value was “inhibited; also recorded: reduced”. In addition, in the data set on HT1080 cells, the “Fe^2+ and Fe^3+ levels in control guide RNA cells” value is recorded as “reduced”. For the same molecule, in the data set with HT1080 cells (over time), the “Fe^2+ and Fe^3+ levels compared with nontreated controls” value is “slightly reduced”.

B1: Fe^2+ H5 DNAzyme A39T (nucleic acid)
chain: TGGATATCTCCTAGCCAGACTGTTATGTGTGATACGGCTAACTTCGTGATGCCTCTACGGGTCCG
modifications: DNA, backbone not given here
In the case of B1, the “activity of mutated DNAzyme strand normalized to original Fe^2+ H5 DNAzyme” value in data set [2] was “heightened activity”.

B2: Fe^2+ H5 DNAzyme T54C (nucleic acid)
chain: TGGATATCTCCTAGCCAGACTGTTATGTGTGATACGGCAAACTTCGTGATGCCCCTACGGGTCCG
modifications: DNA, backbone not given here
As to B2, in data set [2], the “activity of mutated DNAzyme strand normalized to original Fe^2+ H5 DNAzyme” value is given as “heightened activity”.

B3: Fe^2+ H5 DNAzyme Combo 31 (nucleic acid)
chain: TGGATATCTCCTAGCCAGACTGTTATGTGTGATACGGCGCACTTCGTGATCGCTCTACGGGTCCG
modifications: DNA, backbone not given here
B3: in data set [1], the “relative activity of combined point mutations versus original” value (“relative activity” below) is on record as “decreased the relative activity”.

B4: Fe^2+ H5 DNAzyme A39G (nucleic acid)
chain: TGGATATCTCCTAGCCAGACTGTTATGTGTGATACGGCGAACTTCGTGATGCCTCTACGGGTCCG
modifications: DNA, backbone not given here
As for B4, in data set [2], the “activity of mutated DNAzyme strand normalized to original Fe^2+ H5 DNAzyme” value is recorded as “heightened activity”.

B5: Fe^2+ H5 DNAzyme A40C (nucleic acid)
chain: TGGATATCTCCTAGCCAGACTGTTATGTGTGATACGGCACACTTCGTGATGCCTCTACGGGTCCG
modifications: DNA, backbone not given here
On to B5, for which, in data set [2], the “activity of mutated DNAzyme strand normalized to original Fe^2+ H5 DNAzyme” value is “heightened activity”.

B6: Fe^2+ H5 DNAzyme Combo 30 (nucleic acid)
chain: TGGATATCTCCTAGCCAGACTGTTATGTGTGATACGGCGCACTTCGTGATGCCCCTACGGGTCCG
modifications: DNA, backbone not given here
For the molecule B6, the “relative activity” value in data set [1] is “increased the relative activity”.

B7: Fe^2+ H5 DNAzyme C52G (nucleic acid)
chain: TGGATATCTCCTAGCCAGACTGTTATGTGTGATACGGCAAACTTCGTGATGGCTCTACGGGTCCG
modifications: DNA, backbone not given here
Take B7: in data set [2], the “activity of mutated DNAzyme strand normalized to original Fe^2+ H5 DNAzyme” value is “heightened activity”.

B8: Fe^2+ H5 DNAzyme G51C (nucleic acid)
chain: TGGATATCTCCTAGCCAGACTGTTATGTGTGATACGGCAAACTTCGTGATCCCTCTACGGGTCCG
modifications: DNA, backbone not given here
As for B8, in data set [2], the “activity of mutated DNAzyme strand normalized to original Fe^2+ H5 DNAzyme” value is reported as “heightened activity”.

B9: Fe^2+ H5 DNAzyme Combo 29 (nucleic acid)
chain: TGGATATCTCCTAGCCAGACTGTTATGTGTGATACGGCGAACTTCGTGATCGCTCTACGGGTCCG
modifications: DNA, backbone not given here
With B9, the “relative activity” value in data set [1] is on record as “increased the relative activity”.
